# From patent US8119650B2, “Aminophenyl derivatives as novel inhibitors of histone deacetylase” (Janssen Pharmaceutica N.V., priority 2006, dated 2012)
# Like-named read-outs stand apart in the source and are kept apart here.
# Key:
# [1] = tested on: A2780 ovarian carcinoma cells; test: Antiproliferative activity on A2780 cells (MTT); format: cell-based; details: Homo sapiens, 96 h, four days of incubation, read-out: Cellular activity pIC50 C.2 (converted)
# Description: Cellular activity of the compounds of formula (I) was determined on A2780 tumour cells using a […] assay for cell toxicity or survival (Mosmann Tim, Journal of Immunological Methods 65: 55-63, 1983)(see example C.2).
# All compounds tested were dissolved in DMSO and further dilutions were made in culture medium. Final DMSO concentrations never exceeded 0.1% (v/v) in cell proliferation assays. Controls contained A2780 cells and DMSO without compound and blanks contained DMSO but no cells. MTT was dissolved at 5 mg/ml in PBS. A glycine buffer comprised of 0.1 M glycine and 0.1 M NaCl buffered to pH 10.5 with NaOH (1 N) was prepared (all reagents were from Merck).
# The human A2780 ovarian carcinoma cells (a kind gift from Dr. T. C. Hamilton [Fox Chase Cancer Centre, Pennsylvania, USA]) were cultured in RPMI 1640 medium supplemented with 2 mM L-glutamine, 50 μg/ml gentamicin and 10% fetal calf serum. Cells were routinely kept as monolayer cultures at 37° C. in a humidified 5% CO2 atmosphere. Cells were passaged once a week using a trypsin/EDTA solution at a split ratio of 1:40. All media and supplements were obtained from Life Technologies. Cells were free of mycoplasma contamination as determined using the Gen-Probe Mycoplasma Tissue Culture kit (supplier: BioMérieux).
# Cells were seeded in NUNC™ 96-well culture plates (Supplier: Life Technologies) and allowed to adhere to the plastic overnight. Densities used for plating were 1500 cells per well in a total volume of 200 μl medium. After cell adhesion to the plates, medium was changed and drugs and/or solvents were added to a final volume of 200 μL Following four days of incubation, medium was replaced by 200 μl fresh medium and cell density and viability was assessed using an MTT-based assay. […] For each sample, the mean value for cell growth (in absorbance units) was expressed as a percentage of the mean value for cell growth of the control. […] Herein the effects of test compounds are expressed as pIC50 (the negative log value of the IC50-value) (see Table F-2).
# [2] = biological target: histone deacetylase (HeLa nuclear extracts); test: In vitro assay for inhibition of histone deacetylase with fluorescent-labelled substrate; format: biochemical; details: Fluor de Lys substrate
# Source text: The in vitro assay for inhibition of histone deacetylase (see example C. 1) measures the inhibition of HDAC enzymatic activity obtained with the compounds of formula (I).
# The HDAC Fluorescent Activity Assay/Drug Discovery Kit of Biomol (cat.No: AK-500-0001) was used. The HDAC Fluorescent Activity Assay is based on the Fluor de Lys (Fluorogenic Histone deAcetylase Lysyl) substrate and developer combination. The Fluor de Lys substrate, comprises an acetylated lysine side chain. Deacetylation of the substrate sensitizes the substrate so that, in the second step, treatment with the Fluor de Lys developer produces a fluorophore.
# HeLa nuclear extracts (supplier: Biomol) were incubated at 60 μg/ml with 75 μM of substrate. The Fluor de Lys substrate was added in a buffer containing 25 mM Tris, 137 mM NaCl, 2.7 mM KCl and 1 mM MgCl2.6H2O at pH 7.4. After 30 min, 1 volume of the developer was added. The fluorophore was excited with 355 nm light and the emitted light (450 nm) was be detected on a fluorometric plate reader.
# For each experiment, controls (containing HeLa nuclear extract and buffer), a blank incubation (containing buffer but no HeLa nuclear extract) and samples (containing compound dissolved in DMSO and further diluted in buffer and HeLa nuclear extract) were run in parallel. In first instance, compounds were tested at a concentration of 10^−5M. […] All sample were tested 4 times. In each test the blank value was substracted from both the control and the sample values. The control sample represented 100% of substrate deactylation. For each sample the fluorescence was expressed as a percentage of the mean value of the controls. […] Herein the effects of test compounds are expressed as pIC50 (the negative log value of the IC50-value) (see Table F-2).
# [3] = Solubility at pH 2.3 (chemiluminescent nitrogen detector); format: physicochemical; details: pH 2.3, aqueous buffer; read-out: Solubility C.3.b. pH = 2.3
# Description: The solubility of a compound measures the ability of a compound to stay in solution. In a first method the ability of a compound to stay in aqueous solution upon dilution (see example C.3.a) is measured. DMSO-stock solutions are diluted with a single aqueous buffer solvent in different consecutive steps. In this method, mixtures are then scanned in the BD Gentest Solubility Scanner for the occurrence of precipitation. In a second method the solubility of a compound at different pH's can be measured with the use of a Chemiluminescent Nitrogen Detector (see example C.3.b).
# The solubility of a compound, at pH 2.3, can also be measured with the use of a chemiluminescent nitrogen detector (see Table F-2).
Compound,IC50 [1] [nM],Enzymatic activity pIC50 C.1 [2],other results
COc1cc(N)c(Cl)cc1C(=O)NC1CCN(CCCOc2ccc(F)cc2)CC1OC (centres unmarked) [Cisapride],,,"% metabolism (human, 15 min, 5 μM): 45%"
CCCn1cc(CCNCC2CCN(c3ncc(C(=O)Nc4ccccc4N)cn3)CC2)c2cc(Cl)ccc21 [Compound 1],3160,<6,
Cn1cc(CNCC2CCN(c3ncc(C(=O)Nc4ccccc4N)cn3)CC2)c2ccccc21 [Compound 2],100,4.8,solubility [3]: 3700 µg/mL
CCCn1cc(CNCC2CCN(c3ncc(C(=O)Nc4ccccc4N)cn3)CC2)c2cc(F)ccc21 [Compound 3],1580,<6,
Nc1ccccc1NC(=O)c1cnc(N2CCC(CNCCc3c[nH]c4ccccc34)CC2)nc1 [Compound 4],,<6,
CS(=O)(=O)N(CCc1c[nH]c2ccccc12)CC1CCN(c2ncc(C(=O)Nc3ccccc3N)cn2)CC1 [Compound 5],,<6,
CCCO [propanol],,,"% metabolism (15 min incubation with microsomes, compound 5 μM): 25%"
